The results in this text go back to US10226453B2, “3-(1H-indol-2-yl)-1H-pyrazolo[4,3-B]pyridines and therapeutic uses thereof” (Samumed, LLC, priority 2015, dated 2019).

In general, EC50 refers to the concentration at which the effect is half-maximal. Low readings indicate greater potency, high ones weaker potency. Broadly, the inhibition is the change of the read-out against control, counted positive when it falls.

Holding throughout (type): cell-based
Experiment [1] deals with SW480 colon cancer cells. The experiment in a line: Cell viability assay (CellTiter-Blue), SW480 colon cancer cells. The settings on record: Homo sapiens, 96 h, four days, CellTiter-Blue. Here is the method:
Representative compounds were screened using the following assay procedure to assess the effect on cell viability as described below.
Each compound was dissolved in DMSO as a 10 mM stock and used to prepare compound source plates. Serial dilution (1:3, 8-point dose-response curves from 10 μM to 0.0045 μM) and compound transfer was performed using the ECHO 550 (Labcyte, Sunnyvale, Calif.) into 96-well clear bottom, black-walled plates (Corning—Costar).
Approximately 2×10^3 SW480 colon cancer cells were seeded into each well and allowed to incubate in the presence or absence of compound for four days at 37° C./5% CO2. Eight replicates of DMSO-treated cells served as controls and cells treated with compound were performed in duplicate.
After incubation, 20 μL of CellTiter-Blue (Promega) was added to each well allowed to incubate for approximately 3 hours. This reagent was a buffered solution which contains resazurin, metabolically active cells were able to reduce rezarurin (blue) into resorufin (pink) which was highly fluorescent. This measured fluorescence was used as a readout for cell viability.
After incubation, the plates were read at Ex 560 nm Em 590 nm (Cytation 3, BioTek). Dose-response curves were generated and EC50 concentration values were calculated using non-linear regression curve fit in the GraphPad Prism (San Diego, Calif.) or Dotmatics' Studies Software (Bishops Stortford, UK). For EC50 of >10 μM, the percent inhibition at 10 μM is provided.
For orientation: Resazurin is reduced to fluorescent resorufin, in cell work by metabolically active cells.

For experiment [2], the system named is IL-6 (THP-1 cells). The experiment in a line: IL-6 inhibition in LPS-stimulated THP-1 human monocyte cells (HTRF). The settings on record: LPS 500 ng/mL, 22 hours, IL6 HTRF. The protocol:
Human monocyte cell line (THP-1 cells; Catalog # TIB-202, ATCC, Manassas, Va.) were cultured in Roswell Park Memorial Institute (RPMI) 1640 Medium (Catalog #21870-100, Buffalo, N.Y.) with 1% L-glutamine, 1% HEPES, 1% Sodium Pyruvate, 2% Sodium Bicarbonate supplemented with 100 units/mL penicillin, 50 μg/mL streptomycin, 2-mercaptoethanol (0.05 mM) [basal medium] and 10% fetal bovine serum (Catalog #16140089, Life Technologies, Carlsbad, Calif.) at 37° C. and 5% CO2.
THP-1 cells were cultured in basal media with 1% FBS for 24 hours before the start of the assay. Each compound was dissolved in DMSO as a 10 mM stock and used to prepare compound source plates. Serial dilution (1:3, 10-point dose-response curves starting from 10 μM) and compound transfer was performed using the ECHO 550 (Labcyte, Sunnyvale, Calif.) into 384-well white low volume assay plates (Greiner Bio-One) with appropriate DMSO backfill for a final DMSO concentration of 0.1%. THP-1 cells were plated at 5000 cells/well in the 384-well plates and incubated at 37° C. for 2 h. 500 ng/mL of LPS was added after 2 hours and cells were incubated for another 22 hours at 37° C. Plates were spun in a centrifuge for 1 minute at […] and a mixture of anti-IL6 XL665, and anti-IL6 Cryptate diluted in reconstitution buffer (Cisbio Inc.) was added to each well. Following incubation for 3 hrs at room temperature, Homogeneous Time-Resolved Fluorescence (HTRF) was measured using the Envision (Perkin Elmer) at 665 nm and […]. The ratio of fluorescence at 665 nm to 620 nm was used as a readout for IL6 quantification. All samples were processed in duplicate. Readings were normalized to DMSO treated cells and normalized activities were utilized for EC50 calculations using the dose-response log (inhibitor) vs. response-variable slope (four parameters) nonlinear regression feature available in GraphPad Prism 5.0 (or Dotmatics). For EC50 of >10 μM, the percent inhibition at 10 μM is provided.
A general note: In TR-FRET formats the signal depends on donor and acceptor labels being close together.

Experiment [3] has as its system Wnt activity (Sp5-Luc reporter, SW480 colon carcinoma cells). The experiment in a line: Wnt activity screening assay: Sp5-Luc reporter gene in SW480 colon carcinoma cells. The settings on record: Homo sapiens; for EC50: overnight incubation, 10-point curve from 10 μM; for inhibition at 10 µM: given where EC50 >10 μM, read-out: percent inhibition at 10 μM. The text has this: The screening assay for Wnt activity is described as follows. Reporter cell lines can be generated by stably transducing cancer cell lines (e.g., colon cancer) or primary cells (e.g., IEC-6 intestinal cells) with a lentiviral construct that includes a Wnt-responsive promoter driving expression of the firefly luciferase gene.
SW480 colon carcinoma cells were transduced with a lentiviral vector expressing luciferase with a human Sp5 promoter consisting of a sequence of eight TCF/LEF binding sites. SW480 cells stably expressing the Sp5-Luc reporter gene and a hygromycin resistance gene were selected by treatment with 150 μg/mL of hygromycin for 7 days. These stably transduced SW480 cells were expanded in cell culture and used for all further screening activities. Each compound was dissolved in DMSO as a 10 mM stock and used to prepare compound source plates. Serial dilution (1:3, 10-point dose-response curves starting from 10 μM) and compound transfer was performed using the ECHO 550 (Labcyte, Sunnyvale, Calif.) into 384-well white solid bottom assay plates (Greiner Bio-One) with appropriate DMSO backfill for a final DMSO concentration of 0.1%. For Sp5-Luc reporter gene assays, the cells were plated at 4,000 cells/well in 384-well plates with medium containing 1% fetal bovine serum and incubated overnight at 37° C. and 5% CO2. Following incubation, 20 μl of BrightGlo luminescence reagent (Promega) was added to each well of the 384-well assay plates. The plates were placed on an orbital shaker for 2 min and then luminescence was quantified using the Envision (Perkin Elmer) plate reader. Readings were normalized to DMSO only treated cells, and normalized activities were utilized for EC50 calculations using the dose-response log (inhibitor) vs. response-variable slope (four parameters) nonlinear regression feature available in GraphPad Prism 5.0 (or Dotmatics). For EC50 of >10 μM, the percent inhibition at 10 μM is provided.
In general terms: Reporter assays use an easily measured gene product as a stand-in for the process of interest.

The test system of experiment [4] is primary human fibroblasts derived from IPF patients (LL29 cells) treated with TGF-β1. The experiment in a line: Inhibition of the fibrotic process: αSMA staining in TGF-β1 treated primary human fibroblasts from IPF patients (LL29 cells). The settings on record: Fibroblast, 96 h, TGF-β1 20 ng/mL, 4 days, % αSMA positive cells. The text has this:
Representative compounds were screened using primary human fibroblasts (derived from IPF patients) treated with TGF-β1 to determine their ability to inhibit the fibrotic process.
Primary human fibroblasts derived from IPF patients (LL29 cells) [^1Xiaoqiu Liu, et. al., “Fibrotic Lung Fibroblasts Show Blunted Inhibition by cAMP Due to Deficient cAMP Response Element-Binding Protein Phosphorylation”, Journal of Pharmacology and Experimental Therapeutics (2005), 315(2), 678-687; ^2Watts, K. L., et. al., “RhoA signaling modulates cyclin D1 expression in human lung fibroblasts; implications for idiopathic pulmonary fibrosis”, Respiratory Research (2006), 7(1), 88] were obtained from American Type Culture Collection (ATCC) and expanded in F12 medium supplemented with 15% Fetal Bovine Serum and Penicillin/Streptomycin.
Each compound was dissolved in DMSO as a 10 mM stock and used to prepare compound source plates. Serial dilution (1:2, 11-point dose-response curves from 10 μM to 1.87 nM) and compound transfer was performed using the ECHO 550 (Labcyte, Sunnyvale, Calif.) into 384-well clear bottom assay plates (Greiner Bio-One) with appropriate DMSO backfill for a final DMSO concentration of 0.1%. LL29 cells are plated at 1,500 cells/well in 80 μL/well F12 medium supplemented with 1% Fetal Bovine Serum. One hour after addition of the cells, TGF-β1 (Peprotech; 20 ng/mL) was added to the plates to induce fibrosis (ref. 1 and 2 above). Wells treated with TGF-β1 and containing DMSO were used as controls. Cells were incubated at 37° C. and 5% CO2 for 4 days. Following incubation for 4 days, SYTOX green nucleic acid stain (Life Technologies [Thermo Fisher Scientific]) was added to the wells at a final concentration of 1 μM and incubated at room temperature for 30 min. Cells were then fixed using 4% formaldehyde (Electron Microscopy Sciences), washed 3 times with PBS followed by blocking and permeabilization using 3% Bovine Serum Albumin (BSA; Sigma) and 0.3% Triton X-100 (Sigma) in PBS. Cells were then stained with antibody specific to α-smooth muscle actin (αSMA; Abcam) (ref. 1 and 2 above) in 3% Bovine Serum Albumin (BSA; Sigma) and 0.3% Triton X-100 (Sigma) in PBS, and incubated overnight at 4° C. Cells were then washed 3 times with PBS, followed by incubation with Alexa Flor-647 conjugated secondary antibody (Life Technologies [Thermo Fisher Scientific]) and DAPI at room temperature for 1 hour. Cells were then washed 3 times with PBS and plates were sealed for imaging. αSMA staining was imaged by excitation at 630 nm and emission at 665 nm and quantified using the Compartmental Analysis program on the CellInsight CX5 (Thermo Scientific). Dead or apoptotic cells were excluded from analysis based on positive SYTOX green staining. % of total cells positive for αSMA were counted in each well and normalized to the average of 11 wells treated with TGF-β1 on the same plate using Dotmatics' Studies Software. The normalized averages (fold change over untreated) of 3 replicate wells for each compound concentration were used to create dose-responses curves and EC50 values were calculated using non-linear regression curve fit in the Dotmatics' Studies Software. For EC50 of >10 μM, the percent inhibition at 10 μM is provided.

As to `CC(C)CC(=O)Nc1cncc(-c2ccc3[nH]nc(-c4cc5c(N6CCN(C)CC6)cccc5[nH]4)c3n2)c1` [Compound 226, 3-Methyl-N-(5-(3-(4-(4-methylpiperazin-1-yl)-1H-indol-2-yl)-1H-pyrazolo [4,3-b]pyridin-5-yl)pyridin-3-yl)butanamide], the EC50 in experiment [1] came to 1930 nM; in experiment [2], 359 nM; in experiment [3], 2140 nM; in experiment [4], 2550 nM.
`CN1CCN(c2cccc3[nH]c(-c4n[nH]c5ccc(-c6cncc(CN7CCCCC7)c6)nc45)cc23)CC1` [Compound 239, 3-(4-(4-Methylpiperazin-1l-yl)-1H-indol-2-yl)-5-(5-(piperidin-1-ylmethyl)pyridin-3-yl)-1H-pyrazolo[4,3-b]pyridine]: the EC50 in experiment [1] was 9360 nM; in experiment [2], 1190 nM; in experiment [3], greater than 10000 nM; in experiment [4] it was 4980 nM. The inhibition at 10 µM in experiment [3] amounted to 5%.
Turning to `CN1CCN(c2cccc3[nH]c(-c4n[nH]c5ccc(-c6cncc(NC(=O)CC(C)(C)C)c6)nc45)cc23)CC1` [Compound 240, 3,3-Dimethyl-N-(5-(3-(4-(4-methylpiperazin-1-yl)-1H-indol-2-yl)-1H-pyrazolo[4,3-b]pyridin-5-yl)pyridin-3-yl)butanamide], the EC50 in experiment [1] was found to be 1840 nM; in experiment [2], 244 nM; in experiment [3] it was 2980 nM; in experiment [4], 1750 nM.
The corresponding values for `Cc1ccncc1-c1ccc2[nH]nc(-c3cc4ccccc4[nH]3)c2n1` [Compound 257, 3-(1H-Indol-2-yl)-5-(4-methylpyridin-3-yl)-1H-pyrazolo[4,3-b]pyridine] are 8060 nM, 17 nM, 3690 nM and 4640 nM.
Consider `O=C(Nc1cncc(-c2ccc3[nH]nc(-c4cc5c(-c6cccs6)cccc5[nH]4)c3n2)c1)c1ccccc1` [Compound 347, N-(5-(3-(4-(Thiophen-2-yl)-1H-indol-2-yl)-1H-pyrazolo[4,3-b]pyridin-5-yl)pyridin-3-yl)benzamide], for which the EC50 in experiment [1] was 6080 nM; in experiment [2], 1070 nM; in experiment [3], greater than 10000 nM; in experiment [4], 446 nM. The inhibition at 10 µM in experiment [3] was 35.8%.
Regarding `CN(C)Cc1cncc(-c2ccc3[nH]nc(-c4cc5c(-c6cccs6)cccc5[nH]4)c3n2)c1` [Compound 349, N,N-Dimethyl-1-(5-(3-(4-(thiophen-2-yl)-1H-indol-2-yl)-1H-pyrazolo[4,3-b]pyridin-5-yl)pyridin-3-yl)methanamine], the EC50 in experiment [1] was found to be 2840 nM; in experiment [2], 137 nM; in experiment [3] it was 8280 nM; in experiment [4], 1270 nM.
The corresponding values for `c1csc(-c2cccc3[nH]c(-c4n[nH]c5ccc(-c6ccncc6)nc45)cc23)c1` [Compound 354, 5-(Pyridin-4-yl)-3-(4-(thiophen-2-yl)-1H-indol-2-yl)-1H-pyrazolo[4,3-b] pyridine] are 4120 nM, 1420 nM, 3600 nM and 1460 nM.
The matching figures for `CN(C)CCNc1cc(F)cc(-c2cccc3[nH]c(-c4n[nH]c5ccc(-c6cncc(NC(=O)Cc7ccccc7)c6)nc45)cc23)c1` [Compound 458, N-(5-(3-(4-(3-((2-(Dimethylamino)ethyl)amino)-5-fluorophenyl)-1H-indol-2-yl)-1H-pyrazolo[4,3-b]pyridin-5-yl)pyridin-3-yl)-2-phenylacetamide]: 970 nM, 1460 nM, 1030 nM and 1860 nM.
The matching figures for `CC(C)(C)CC(=O)Nc1cncc(-c2ccc3[nH]nc(-c4cc5c(-c6cc(F)cc(CNS(C)(=O)=O)c6)cccc5[nH]4)c3n2)c1` [Compound 492, N-(5-(3-(4-(3-Fluoro-5-(methylsulfonamidomethyl)phenyl)-1H-indol-2-yl)-1H-pyrazolo[4,3-b]pyridin-5-yl)pyridin-3-yl)-3,3-dimethylbutanamide]: 1060 nM, 261 nM, 292 nM and 345 nM.
